Data as given in the supplement of paper PMC6045584.
± gives the standard deviation of the averaged measurements.

Experiments:
AFATINIB = compound: CN(C)C/C=C/C(=O)Nc1cc2c(Nc3ccc(F)c(Cl)c3)ncnc2cc1O[C@H]1CCOC1 [AFATINIB]; test: surviving fraction relative to DMSO-only wells; higher = less growth inhibition; conditions: exposure time: 5 days
Summary of the method: (§1)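 Continuous five-day exposure to inhibitors at 0.5, 1, 5, 10, 50, 100, 500 and 1000 nM started 24 hours after log-phase tumour cell lines were seeded at 250–500 cells per well in 384-well plates. Luminescence was read after 10 minutes at room temperature. Viability is given as surviving fraction, meaning CellTiter-Glo luminescence normalised to the median of DMSO-only wells.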

SNX-5422 = compound: CC1(C)CC(=O)c2c(C(F)(F)F)nn(-c3ccc(C(N)=O)c(N[C@H]4CC[C@H](OC(=O)CN)CC4)c3)c2C1 [SNX-5422]; test: as above; conditions: exposure time: 5 days
Summary of the method: as §1

Test System	surviving fraction (AFATINIB; 0.5 nM)	surviving fraction (AFATINIB; 1 nM)	surviving fraction (AFATINIB; 5 nM)	surviving fraction (AFATINIB; 10 nM)	surviving fraction (AFATINIB; 50 nM)	surviving fraction (AFATINIB; 100 nM)	surviving fraction (AFATINIB; 500 nM)	surviving fraction (AFATINIB; 1000 nM)	surviving fraction (SNX-5422; 0.5 nM)	surviving fraction (SNX-5422; 1 nM)	surviving fraction (SNX-5422; 5 nM)	surviving fraction (SNX-5422; 10 nM)	surviving fraction (SNX-5422; 50 nM)	surviving fraction (SNX-5422; 100 nM)	surviving fraction (SNX-5422; 500 nM)	surviving fraction (SNX-5422; 1000 nM)
22RV1 PROSTATE	1.03 ± 0.098	1.05 ± 0.063	1.01 ± 0.037	0.977 ± 0.087	0.984 ± 0.052	0.916 ± 0.028	0.737 ± 0.057	0.515 ± 0.065	1.06 ± 0.047	1.11 ± 0.056	1.06 ± 0.037	0.941 ± 0.056	0.169 ± 0.018	0.13 ± 0.022	0.0763 ± 0.014	0.0823 ± 0.0091
93VU HEADNECK	0.895 ± 0.046	0.883 ± 0.053	0.697 ± 0.075	0.59 ± 0.043	0.469 ± 0.085	0.46 ± 0.049	0.387 ± 0.017	0.302 ± 0.022	1.14 ± 0.02	1.15 ± 0.029	1.31 ± 0.069	1.24 ± 0.085	0.648 ± 0.074	0.199 ± 0.041	0.0953 ± 0.0047	0.0957 ± 0.012
143B BONE	1.0165 ± 0.00071	1.05 ± 0.011	1.0335 ± 0.00071	1.02 ± 0.014	1.01 ± 0.023	1.02 ± 0.02	1 ± 0.028	0.871 ± 0.11	1 ± 0.056	0.985 ± 0.0099	1.02 ± 0.037	0.996 ± 0.0057	0.365 ± 0.016	0.149 ± 0.0028	0.087 ± 0.0071	0.091 ± 0.011
A549 LUNG	1.02 ± 0.068	1.02 ± 0.053	0.987 ± 0.05	0.965 ± 0.056	1.03 ± 0.025	1.03 ± 0.019	1.04 ± 0.05	1.03 ± 0.034	1 ± 0.046	1.01 ± 0.053	1.01 ± 0.043	0.99 ± 0.045	0.895 ± 0.057	0.349 ± 0.046	0.0613 ± 0.0031	0.058 ± 0.0095
ASKA SYNOVIAL	1.13 ± 0.029	1.09 ± 0.035	1.15 ± 0.083	1.1 ± 0.11	1.15 ± 0.029	1.14 ± 0.028	0.78 ± 0.023	0.404 ± 0.023	0.957 ± 0.041	0.967 ± 0.015	0.963 ± 0.035	0.883 ± 0.062	0.461 ± 0.05	0.233 ± 0.01	0.231 ± 0.0067	0.293 ± 0.0035
BT20 BREAST	1.1 ± 0.22	1.03 ± 0.2	0.943 ± 0.24	0.922 ± 0.15	0.909 ± 0.17	0.857 ± 0.3	1.18 ± 0.3	1.28 ± 0.15	1.14 ± 0.047	1.1 ± 0.088	1.14 ± 0.05	1.094 ± 0.0083	0.738 ± 0.039	0.411 ± 0.063	0.329 ± 0.046	0.298 ± 0.052
BT549 BREAST	1.08 ± 0.1	1.12 ± 0.072	1.11 ± 0.11	1.07 ± 0.2	0.919 ± 0.15	1.09 ± 0.066	0.696 ± 0.15	0.278 ± 0.082	1.1 ± 0.22	0.861 ± 0.11	1.19 ± 0.077	1.05 ± 0.11	0.216 ± 0.02	0.187 ± 0.059	0.0503 ± 0.011	0.0473 ± 0.0074
CAL51 BREAST	0.97 ± 0.048	1.02 ± 0.022	1.002 ± 0.0031	0.977 ± 0.033	1.04 ± 0.019	1.02 ± 0.028	0.963 ± 0.085	0.682 ± 0.06	0.902 ± 0.075	0.973 ± 0.016	1.02 ± 0.036	1 ± 0.034	0.261 ± 0.036	0.077 ± 0.0036	0.0237 ± 0.00058	0.0263 ± 0.0015
CAL72 BONE	1.09 ± 0.021	1.02 ± 0.061	1.07 ± 0.018	1.06 ± 0.042	1.11 ± 0.011	1.1 ± 0.036	0.984 ± 0.031	0.893 ± 0.053	1.033 ± 0.0045	1.06 ± 0.022	1.077 ± 0.01	1.08 ± 0.046	0.208 ± 0.027	0.294 ± 0.038	0.0867 ± 0.014	0.0977 ± 0.0057
CAL120 BREAST	0.955 ± 0.035	0.96 ± 0.0041	0.968 ± 0.035	0.928 ± 0.013	0.908 ± 0.032	0.852 ± 0.029	0.671 ± 0.01	0.471 ± 0.038	0.993 ± 0.019	0.946 ± 0.034	0.962 ± 0.057	0.875 ± 0.057	0.149 ± 0.013	0.132 ± 0.0094	0.083 ± 0.0092	0.0862 ± 0.0052
CASKI CERVIX	0.715 ± 0.055	0.522 ± 0.028	0.409 ± 0.041	0.274 ± 0.015	0.259 ± 0.0076	0.223 ± 0.006	0.049 ± 0.007	0.02 ± 0.0017	0.913 ± 0.016	0.937 ± 0.021	0.932 ± 0.049	0.829 ± 0.074	0.119 ± 0.02	0.0603 ± 0.0035	0.031 ± 0.0036	0.033
CHLA90 AUTONOMIC GANGLIA	0.991 ± 0.042	0.981 ± 0.056	0.839 ± 0.063	0.849 ± 0.077	0.819 ± 0.017	0.796 ± 0.052	0.775 ± 0.051	0.593 ± 0.036	0.995 ± 0.028	1.07 ± 0.075	1.04 ± 0.041	1.026 ± 0.0046	0.251 ± 0.028	0.227 ± 0.029	0.129 ± 0.0096	0.141 ± 0.0081
CME SYNOVIAL	1.34 ± 0.1	1.37 ± 0.18	1.33 ± 0.13	1.28 ± 0.17	1.44 ± 0.19	1.32 ± 0.12	1.26 ± 0.062	0.733 ± 0.066	1.05 ± 0.06	1.21 ± 0.062	1.23 ± 0.074	1.35 ± 0.077	1.01 ± 0.18	0.276 ± 0.0067	0.287 ± 0.011	0.365 ± 0.034
COLO320DM LARGE INTESTINE	1.14 ± 0.075	1.06 ± 0.088	1.08 ± 0.14	1.06 ± 0.073	1.04 ± 0.083	1.04 ± 0.08	0.872 ± 0.093	0.634 ± 0.037	1.11 ± 0.05	1.25 ± 0.046	1.24 ± 0.27	1.13 ± 0.12	0.581 ± 0.029	0.309 ± 0.035	0.113 ± 0.0058	0.103 ± 0.009
DU4475 BREAST	1.05 ± 0.26	1.08 ± 0.31	0.851 ± 0.034	1.11 ± 0.25	1.17 ± 0.15	0.997 ± 0.089	1.08 ± 0.25	0.788 ± 0.042	1.07 ± 0.29	0.979 ± 0.18	1.04 ± 0.17	1.06 ± 0.26	0.03 ± 0.013	0.0313 ± 0.0065	0.029 ± 0.0052	0.0317 ± 0.0072
G292 BONE	1 ± 0.064	0.998 ± 0.029	1.07 ± 0.027	0.995 ± 0.037	1.03 ± 0.02	0.982 ± 0.028	0.717 ± 0.032	0.447 ± 0.027	1.01 ± 0.014	0.952 ± 0.055	1.02 ± 0.033	0.994 ± 0.034	0.366 ± 0.017	0.287 ± 0.028	0.081 ± 0.0089	0.0853 ± 0.012
H23 LUNG	0.887 ± 0.035	0.817 ± 0.048	0.507 ± 0.024	0.42 ± 0.015	0.387 ± 0.018	0.368 ± 0.029	0.355 ± 0.021	0.288 ± 0.002	1.01 ± 0.051	1.04 ± 0.023	1.06 ± 0.057	1.04 ± 0.052	0.43 ± 0.0053	0.268 ± 0.013	0.037 ± 0.0027	0.0373 ± 0.0035
HCC38 BREAST	1.37 ± 0.28	1.23 ± 0.18	1.27 ± 0.074	1.26 ± 0.044	1.2 ± 0.2	1.17 ± 0.17	1 ± 0.18	0.749 ± 0.098	1.19 ± 0.18	1.09 ± 0.094	1.06 ± 0.19	1.01 ± 0.15	0.219 ± 0.053	0.26 ± 0.027	0.0927 ± 0.0074	0.0897 ± 0.017
HCC70 BREAST	1.02 ± 0.064	0.981 ± 0.067	1 ± 0.015	0.965 ± 0.092	0.967 ± 0.022	1.02 ± 0.093	0.962 ± 0.016	0.827 ± 0.1	1.07 ± 0.05	1.142 ± 0.0055	1.19 ± 0.043	1.17 ± 0.048	0.668 ± 0.11	0.133 ± 0.023	0.127 ± 0.021	0.113 ± 0.016
HCC78 LUNG	0.943 ± 0.12	0.936 ± 0.17	0.867 ± 0.21	0.787 ± 0.19	0.64 ± 0.16	0.682 ± 0.13	0.383 ± 0.13	0.235 ± 0.027	0.808 ± 0.27	1.2 ± 0.38	1.03 ± 0.17	1 ± 0.079	0.0547 ± 0.01	0.113 ± 0.049	0.0627 ± 0.016	0.088 ± 0.007
